Experimental data: patent publication US20240383874A1, “BENZENE RING DERIVATIVE, AND COMPOSITION AND PHARMACEUTICAL USE THEREOF” (Xizang Haisco Pharmaceutical Co., Ltd., priority 2020, published 2024)
Structures can show the parent of a compound that is named as a salt. Where two headings read alike, the source gives them in different places.

Assays:
[1] = Pharmacokinetic test in rats; format: in vivo; conditions: rat, po; male SD rats, single dose i.g. 5 mg/kg, plasma, 0-24 h
Experimental: Test objective: in this test, a single dose of test compounds was administered to SD rats intragastrically, and the concentrations of the test compounds in plasma of the rats were measured to evaluate pharmacokinetic characteristics of the test compounds in the rats.
Test animals: male SD rats, 200-250 g, 6-8 weeks old, 3 rats/compound, purchased from Chengdu Dossy Experimental Animals Co., Ltd.
Test method: on the day of the test, 3 SD rats were randomly grouped according to their body weights. The animals were fasted with water available for 12 to 14 hours one day before the administration of a test compound, and were fed 4 hours after the administration.
Sampling: before and after the administration, 0.1 mL of blood was taken from the orbits of the rats under isoflurane anesthesia, and placed in an EDTAK2 centrifuge tube. Centrifugation was carried out at 5000 rpm at 4C for […], and the plasma was collected.
Time points for plasma collection in G1 group: 0, 5 min, 15 min, 30 min, 1 h, 2 h, 4 h, 6 h, 8 h, and 24 h.
Before analysis and detection, all samples were stored at −80° C. The samples were analyzed quantitatively by LC-MS/MS.

22RV1 cells = assay: Experiment 2 on inhibiting 22RV1 cell proliferation (7 days, CellTiter-Glo); format: cell-based; conditions: 1% css-FBS phenol red-free medium, incubated with compound 7 days, read-out: IC50 values on proliferation inhibition of 22RV1 cells
Method in brief: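 22RV1 cells plated at 2000/well in phenol red-free medium with 1% css-FBS and treated next day with compound for 7 days at 37 °C. Viability read by CellTiter-Glo luminescence relative to DMSO vehicle; IC50 from dose-response fit.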

| SMILES | AUC(0-t) [1] | IC50 (22RV1 cells; Homo sapiens, 22Rv1, 168 h) | IC50 (22RV1 cells) |
| --- | --- | --- | --- |
| CC(C)(c1ccc(OCc2ccnc(N3CCC(CN4CCC(C5CCN(c6ccc7c(c6)C(=O)N(C6CCC(=O)NC6=O)C7=O)CC5)CC4)CC3)n2)cc1)c1cc(Cl)cc(C#N)c1 (stereo not drawn) [Compound 37 trifluoroacetate, 3-chloro-5-(2-(4-((2-(4-((1′-(2-(2,6-dioxopiperidin-3-yl)-1,3-dioxoisoindolin-5-yl)-[4,4′-bipiperidin]-1-yl)methyl)piperidin-1-yl)pyrimidin-4-yl)methoxy)phenyl)propan-2-yl)benzonitrile] | 867 ± 66 ng·h/mL | 507 nM | – |
| CC(C)(c1ccc(OCc2ccnc(N3CCC(CN4CCC(C5CCN(c6cc7c(cc6F)C(=O)N(C6CCC(=O)NC6=O)C7=O)CC5)CC4)CC3)n2)cc1)c1cc(Cl)cc(C#N)c1 (stereo not drawn) [Compound 78, 3-chloro-5-(2-(4-((2-(4-((1′-(2-(2,6-dioxopiperidin-3-yl)-6-fluoro-1,3-dioxoisoindolin-5-yl)-[4,4′-bipiperidin]-1-yl)methyl)piperidin-1-yl)pyrimidin-4-yl)methoxy)phenyl)propan-2-yl)benzonitrile] | 2350 ± 309 ng·h/mL | – | – |
| Cn1c(=O)n(C2CCC(=O)NC2=O)c2ccc(N3CCC(C4CCN(CC5CCN(c6nccc(COc7ccc(C(C)(C)c8cc(Cl)c(OCCCl)c(C#N)c8)cc7)n6)CC5)CC4)CC3)cc21 (stereo not drawn) [Compound 98 trifluoroacetate, 3-chloro-2-(2-chloroethoxy)-5-(2-(4-((2-(4-((1′-(1-(2,6-dioxopiperidin-3-yl)-3-methyl-2-oxo-2,3-dihydro-1H-benzo[d]imidazol-5-yl)-[4,4′-bipiperidin]-1-yl)methyl)piperidin-1-yl)pyrimidin-4-yl)methoxy)phenyl)propan-2-yl)benzonitrile] | 492 ± 266 ng·h/mL | 621 nM | – |
| COc1c(Cl)cc(C(C)(C)c2ccc(OCc3ccnc(N4CCC(CN5CCC(C6CCN(c7ccc(C(=O)NC8CCC(=O)NC8=O)nc7)CC6)CC5)CC4)n3)cc2)cc1C#N (stereo not drawn) [Compound 112 trifluoroacetate, 5-(1′-((1-(4-((4-(2-(3-chloro-5-cyano-4-methoxyphenyl)propan-2-yl)phenoxy)methyl)pyrimidin-2-yl)piperidin-4-yl)methyl)-[4,4′-bipiperidin]-1-yl)-N-(2,6-dioxopiperidin-3-yl)picolinamide] | 827 ± 211 ng·h/mL | 463 nM | – |
| Cn1c(=O)n(C2CCC(=O)NC2=O)c2cccc(C3CCN(CC4(F)CCN(C5CC6(CCN(c7nccc(COc8ccc(C(C)(C)c9cc(Cl)cc(C#N)c9)cc8)n7)CC6)C5)CC4)CC3)c21 (stereo not drawn) [Compound 115 trifluoroacetate, 3-chloro-5-(2-(4-((2-(2-(4-((4-(1-(2,6-dioxopiperidin-3-yl)-3-methyl-2-oxo-2,3-dihydro-1H-benzo[d]imidazol-4-yl)piperidin-1-yl)methyl)-4-fluoropiperidin-1-yl)-7-azaspiro[3.5]nonan-7-yl)pyrimidin-4-yl)methoxy)phenyl)propan-2-yl)benzonitrile] | – | 955 nM | – |
| CCOc1c(Cl)cc(C(C)(C)c2ccc(OCc3ccnc(N4CCC(CN5CCC6(CC5)CN(c5ccc7c(c5)n(C)c(=O)n7C5CCC(=O)NC5=O)C6)CC4)n3)cc2)cc1C#N (stereo not drawn) [Compound 118 trifluoroacetate, 3-chloro-5-(2-(4-((2-(4-((2-(1-(2,6-dioxopiperidin-3-yl)-3-methyl-2-oxo-2,3-dihydro-1H-benzo[d]imidazol-5-yl)-2,7-diazaspiro[3.5]nonan-7-yl)methyl)piperidin-1-yl)pyrimidin-4-yl)methoxy)phenyl)propan-2-yl)-2-ethoxybenzonitrile] | 686 ± 336 ng·h/mL | – | – |
| Cn1c(=O)n(C2CCC(=O)NC2=O)c2ccc(C3CCN(C4CCC5(CC4)CN(c4nccc(COc6ccc(C(C)(C)c7cc(Cl)cc(C#N)c7)cc6)n4)C5)CC3)cc21 (stereo not drawn) [Compound 122 trifluoroacetate, 3-chloro-5-(2-(4-((2-(7-(4-(1-(2,6-dioxopiperidin-3-yl)-3-methyl-2-oxo-2,3-dihydro-1H-benzo[d]imidazol-5-yl)piperidin-1-yl)-2-azaspiro[3.5]nonan-2-yl)pyrimidin-4-yl)methoxy)phenyl)propan-2-yl)benzonitrile] | – | 1010 nM | – |
| COc1c(Cl)cc(C(C)(C)c2ccc(OCc3ccnc(N4CCC(CN5CCC(C6CCN(c7cc8c(cc7F)n(C7CCC(=O)NC7=O)c(=O)n8C)CC6)CC5)CC4)n3)cc2)cc1C#N (stereo not drawn) [Compound 123 trifluoroacetate, 3-chloro-5-(2-(4-((2-(4-((1′-(1-(2,6-dioxopiperidin-3-yl)-6-fluoro-3-methyl-2-oxo-2,3-dihydro-1H-benzo[d]imidazol-5-yl)-[4,4′-bipiperidin]-1-yl)methyl)piperidin-1-yl)pyrimidin-4-yl)methoxy)phenyl)propan-2-yl)-2-methoxybenzonitrile] | 1190 ± 724 ng·h/mL | 527 nM | – |
| Cn1c(=O)n(C2CCC(=O)NC2=O)c2cccc(C3CCN(CC4(F)CCN(C5CCN(c6nccc(COc7ccc(C(C)(C)c8cc(Cl)cc(C#N)c8)cc7)n6)CC5)CC4)CC3)c21 (stereo not drawn) [Compound 124 trifluoroacetate, 3-chloro-5-(2-(4-((2-(4-((4-(1-(2,6-dioxopiperidin-3-yl)-3-methyl-2-oxo-2,3-dihydro-1H-benzo[d]imidazol-4-yl)piperidin-1-yl)methyl)-4-fluoro-[1,4′-bipiperidin]-1′-yl)pyrimidin-4-yl)methoxy)phenyl)propan-2-yl)benzonitrile] | – | 576 nM | – |
| CC(Oc1ccc(C(C)(C)c2cc(Cl)cc(C#N)c2)cc1)c1ccnc(N2CCC(CN3CCC(C4CCN(c5cc6c(cc5F)C(=O)N(C5CCC(=O)NC5=O)C6=O)CC4)CC3)CC2)n1 (stereo not drawn) [Compound 127, 3-chloro-5-(2-(4-(1-(2-(4-((1′-(2-(2,6-dioxopiperidin-3-yl)-6-fluoro-1,3-dioxoisoindolin-5-yl)-[4,4′-bipiperidin]-1-yl)methyl)piperidin-1-yl)pyrimidin-4-yl)ethoxy)phenyl)propan-2-yl)benzonitrile] | 1860 ± 185 ng·h/mL | – | 549 nM |
| CC(C)(c1ccc(OCc2ccnc(N3CCC4(CC3)CCN(C3CC5(CCN(c6ccc7c(c6)C(=O)N(C6CCC(=O)NC6=O)C7=O)CC5)C3)CC4)n2)cc1)c1cc(Cl)cc(C#N)c1 (stereo not drawn) [Compound 128, 3-chloro-5-(2-(4-((2-(9-(7-(2-(2,6-dioxopiperidin-3-yl)-1,3-dioxoisoindolin-5-yl)-7-azaspiro[3.5]nonan-2-yl)-3,9-diazaspiro[5.5]undecan-3-yl)pyrimidin-4-yl)methoxy)phenyl)propan-2-yl)benzonitrile] | 604 ± 149 ng·h/mL | – | 132 nM |

The next lines start with results.

| AUC(0-t) [1] | IC50 (22RV1 cells; Homo sapiens, 22Rv1, 168 h) | SMILES | IC50 (22RV1 cells) |
| --- | --- | --- | --- |
| 452 ± 137 ng·h/mL | – | CC(C)(c1ccc(OCc2ccnc(N3CCC4(CC3)CN(CC3CCN(c5ccc6c(c5)C(=O)N(C5CCC(=O)NC5=O)C6=O)CC3)C4)n2)cc1)c1cc(Cl)cc(C#N)c1 (stereo not drawn) [Compound 45, 3-chloro-5-(2-(4-((2-(2-((1-(2-(2,6-dioxopiperidin-3-yl)-1,3-dioxoisoindolin-5-yl)piperidin-4-yl)methyl)-2,7-diazaspiro[3.5]nonan-7-yl)pyrimidin-4-yl)methoxy)phenyl)propan-2-yl)benzonitrile] | – |
| 541 ± 80 ng·h/mL | 427 nM | [2H]C([2H])([2H])Oc1c(Cl)cc(C(C)(C)c2ccc(OCc3ccnc(N4CCC(CN5CCC(C6CCN(c7ccc8c(c7)n(C)c(=O)n8C7CCC(=O)NC7=O)CC6)CC5)CC4)n3)cc2)cc1C#N (stereo not drawn) [Compound 99 trifluoroacetate, 3-chloro-5-(2-(4-((2-(4-((1′-(1-(2,6-dioxopiperidin-3-yl)-3-methyl-2-oxo-2,3-dihydro-1H-benzo[d]imidazol-5-yl)-[4,4′-bipiperidin]-1-yl)methyl)piperidin-1-yl)pyrimidin-4-yl)methoxy)phenyl)propan-2-yl)-2-(methoxy-d3)benzonitrile] | – |
| 574 ± 59 ng·h/mL | 290 nM | CCOc1c(Cl)cc(C(C)(C)c2ccc(OCc3ccnc(N4CCC(CN5CCC(C6CCN(c7ccc(C(=O)NC8CCC(=O)NC8=O)nc7)CC6)CC5)CC4)n3)cc2)cc1C#N (stereo not drawn) [Compound 111 trifluoroacetate, 5-(1′-((1-(4-((4-(2-(3-chloro-5-cyano-4-ethoxyphenyl)propan-2-yl)phenoxy)methyl)pyrimidin-2-yl)piperidin-4-yl)methyl)-[4,4′-bipiperidin]-1-yl)-N-(2,6-dioxopiperidin-3-yl)picolinamide] | – |
| 1430 ± 209 ng·h/mL | – | COc1c(Cl)cc(C(C)(C)c2ccc(OCc3ccnc(N4CCC(CN5CCC(C6CCN(c7ccc(N8CCC(=O)NC8=O)cc7)CC6)CC5)CC4)n3)cc2)cc1C#N [Compound 120, 3-chloro-5-(2-(4-((2-(4-((1′-(4-(2,4-dioxotetrahydropyrimidin-1(2H)-yl)phenyl)-[4,4′-bipiperidin]-1-yl)methyl)piperidin-1-yl)pyrimidin-4-yl)methoxy)phenyl)propan-2-yl)-2-methoxybenzonitrile] | – |
| – | 842 nM | CCOc1c(Cl)cc(C(C)(C)c2ccc(OCc3ccnc(N4CC5(CCC(N6CCC(c7ccc8c(c7)n(C)c(=O)n8C7CCC(=O)NC7=O)CC6)CC5)C4)n3)cc2)cc1C#N (stereo not drawn) [Compound 121 trifluoroacetate, 3-chloro-5-(2-(4-((2-(7-(4-(1-(2,6-dioxopiperidin-3-yl)-3-methyl-2-oxo-2,3-dihydro-1H-benzo[d]imidazol-5-yl)piperidin-1-yl)-2-azaspiro[3.5]nonan-2-yl)pyrimidin-4-yl)methoxy)phenyl)propan-2-yl)-2-ethoxybenzonitrile] | – |
